Source: patent US7659270B2, “Hepatitis C virus inhibitors” (Bristol-Myers Squibb Company, priority 2006, dated 2010)
Where two headings read alike, the source gives them in different places.

System: HCV 1b-377-neo replicon cells
Assay: HCV replicon assay (HCV 1b-377-neo replicon cells)
Assay type: cell-based, Hepatitis C virus genotype 1b
Settings: read-out: EC50 range against HCV 1b (Range)
How it was run: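 HCV genotype 1b (1b-377-neo) replicon cells, run as a validated replicon assay; parallel testing in replicon cells carrying the NS5A Y2065H resistance mutation.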

CCC(C)NCC(=O)N1CCC[C@H]1c1ncc(-c2ccc(-c3ccc(-c4cnc([C@@H]5CCCN5C(=O)[C@@H](NC(=O)OC)C(C)C)[nH]4)cc3)cc2)[nH]1 (stereo partly shown) [LS24]
EC50: 0.01 to 0.999 nM

COC(=O)N[C@H](C(=O)N1CCC[C@H]1c1ncc(-c2ccc(-c3ccc(-c4cnc([C@@H]5CCCN5C(=O)[C@@H](Nc5ncccn5)C(C)C)[nH]4)cc3)cc2)[nH]1)C(C)C [cj-11, methyl((1S)-2-methyl-1-(((2S)-2-(5-(4′-(2-((2S)-1-(N-2-pyrimidinyl-L-valyl)-2-pyrrolidinyl)-1H-imidazol-5-yl)-4-biphenylyl)-1H-imidazol-2-yl)-1-pyrrolidinyl)carbonyl)propyl)carbamate]
EC50 (Hepatitis C virus): 0.01 to 0.999 nM

COC(=O)N[C@H](C(=O)N1CCC[C@H]1c1ncc(-c2ccc(-c3ccc(-c4cnc([C@@H]5CCCN5C(=O)[C@@H](Nc5noc(N)n5)C(C)C)[nH]4)cc3)cc2)[nH]1)C(C)C [cj-16, methyl((1S)-1-(((2S)-2-(5-(4′-(2-((2S)-1-(N-(5-amino-1,2,4-oxadiazol-3-yl)-L-valyl)-2-pyrrolidinyl)-1H-imidazol-5-yl)-4-biphenylyl)-1H-imidazol-2-yl)-1-pyrrolidinyl)carbonyl)-2-methylpropyl)carbamate]
EC50 (Hepatitis C virus): 0.01 to 0.999 nM

COC(=O)N[C@H](C(=O)N1CCC[C@H]1c1ncc(-c2ccc(-c3ccc(-c4cnc([C@@H]5CCCN5C(=O)[C@@H](NC(=NC#N)N(C)C)C(C)C)[nH]4)cc3)cc2)[nH]1)C(C)C [cj-17, methyl((1S)-1-(((2S)-2-(5-(4′-(2-((2S)-1-(N-(cyano(dimethyl)carbamimidoyl)-L-valyl)-2-pyrrolidinyl)-1H-imidazol-5-yl)-4-biphenylyl)-1H-imidazol-2-yl)-1-pyrrolidinyl)carbonyl)-2-methylpropyl)carbamate]
EC50 (Hepatitis C virus): 0.01 to 0.999 nM
